Source: patent US20150353626A1, “APOLIPOPROTEIN A-I DERIVED PEPTIDES FOR TREATMENT OF HYPERGLYCAEMIA” (priority 2013, published 2015)
Ends that are not written are not given here.

Legend:
[1] = apo-state versus discoidal HDL; Saito et al. (2004); cited from earlier work
[2] = system: L6 myotubes; test: Glucose uptake in L6 myotubes (2-[3H]-deoxy-D-glucose); format: cell-based; conditions: 2 h serum starved, 50 μg/ml (1.6 μmol/l) apoA-I or 100 nmol/l insulin, 1 hour, FIG. 1b
Protocol: L6 myoblasts (ATCC #CRL-1458) were grown in α-MEM (Invitrogen) supplemented with 10% FBS (Sigma) and 1% antibiotic/antimycotic (Penicillin, streptomycin, amphotericin B; Invitrogen). Differentiation to myotubes was achieved by switching from growth media to 2% FBS a-MEM for 6-7 or 6-12 days. Cells were maintained at 37° C. and 5% CO2.
Prior to stimulation (or treatment) cells were starved for 2 hours in serum-free a-MEM and all subsequent treatments, which were performed in triplicate and included cytochalasin B (Sigma) as a measure of cell associated non-specific radioactivity, were performed in uptake buffer (140 mmol/l NaCl, 20 mmol/l HEPES, 5 mmol/l KCl, 2.5 mmol/l MgSO4, 1 mmol/l CaCl2, pH 7.4). After stimulation, treatments were replaced with 10 μmol/l 2-deoxy-D-glucose (Sigma), 10 μmol/l 2-[3H]-deoxy-D-glucose (Perkin Elmer) in uptake buffer for 15 mins at room temperature. Cells were then washed twice with ice cold PBS and lysed with 1 mol/l NaOH on ice. Lysates were collected and radioactivity quantified by scintillation counting.
In order to investigate the effect of discodial HDL (rHDL) on GLUT4 translocation and glucose uptake, we produced recombinant human apoA-I and reconstituted HDL needed for cell incubations. L6 myotubes were incubated with 50 μg/ml (1.6 μmol/l) apoA-I for 1 hour followed by a glucose uptake assay as described above. […] Next, L6 myotubes were treated by incubation with 50 μg/ml discodial rHDL (expressed as total concentration of apoA-I in rHDL, given 2 apoA-I molecules per particle) for 1 hour. […] This experiment was thereafter repeated in more controlled manner including cell number and quality (cells were similarly treated during differentiation from myoblasts to multinuclear myotubes, with respect to the time between splitting cells, cell density, passage of cells used.) (FIG. 7c).
The relative effect of specific regions of apoA-I to increase glucose uptake was investigated using truncated protein fragments corresponding to residues 1-189 (N-terminal/central domain), 44-189 (central domain), 44-243 (central/C-terminal domain) and 190-243 (C-terminal domain) of full-length apoA-I (FIG. 4a). The treatments with incubation of truncated protein fragments were performed as described above for treatment of L6 myotubes with full-length apoA-I and followed by a glucose uptake assay as described above.
To test for the contribution of the constituent phospholipid to rHDL-induced glucose uptake in L6 myotubes, rHDL made with DMPC was also produced and compared to 100 nm DMPC vesicles containing no apoA-I protein. Stable 100 nm diameter vesicles can be synthesized with DMPC in the absence of apoA-I and was therefore used as a phospholipid control. The effect on the glucose uptake was tested as described above. […] To also test for the contribution of the constituent POPC phospholipid to rHDL-induced glucose uptake, rHDL made with POPC was compared with 100 nm POPC vesicles containing no apoA-I protein.

[3] = Circular dichroism spectroscopy, alpha-helical content; format: physicochemical; conditions: 0.2 mg/ml in PBS pH 7.4, 25° C.
Protocol: CD measurements were performed on a Jasco J-810 spectropolarimeter equipped with a Jasco CDF-4265 Peltier set to 25° C. ApoA-I (full-length and the 190-234 polypeptide fragment) was diluted to 0.2 mg/ml in PBS (final concentration was 25 mmol/l phosphate, 25 mmol/l NaCl, pH 7.4), placed in a 0.1 mm quartz cuvette and, after extensive purging with nitrogen, scanned in the region 200 to 260 nm (scan speed was 20 nm/min). Averages of five scans were baseline-subtracted (PBS; 25 mmol/l phosphate, 25 mmol/l NaCl) and the alpha-helical content was calculated from the molar ellipticity at 222 nm as previously described (Petrlova et al. (2012) J Lipid Res 53: 390-398).

[4] = system: AMPK; test: Western blot for phosphorylated AMPK in L6 myotube lysates; format: cell-based; conditions: L6 myotubes, 60 minutes; rHDL 700 μg/ml apoA-I; phenformin 0.4 mmol/l; FIG. 3a,b
Protocol: (§1) Prior to stimulation or treatment cultured myoblast cells were serum starved for 4 hours in serum-free α-MEM and all subsequent treatments, including insulin or phenformin as positive controls (Sigma), were performed in serum free a-MEM. After treatments, cells were washed with ice cold PBS buffer and lysed on ice using a non-denaturing lysis buffer (1% Triton X-100, 50 mmol/l Tris, 150 mmol/l NaCl, pH 8.0) containing protease and phosphatase inhibitors (Roche). Lysates were centrifuged at 16,000×g, 20 minutes at 4° C. and BCA protein assay (Pierce) was performed on supernatants. Equal protein amounts were separated by SDS-PAGE and transferred to nitrocellulose membranes. pAMPK, AMPK, pACC, pAkt, Akt and tubulin were used for immunodetection with IRDye 800CW and 680RD secondary antibodies (LI-COR). Blots were imaged using the Odyssey Fc system and quantified using Image studio v2.0 software.
To dissect the effect of discoidal rHDL on a non-insulin dependent signaling pathway, we conducted western blotting using lysates from L6 myotubes incubated with rHDL. […] Phenformin was used as a positive control, inducing a 1.98±0.33-fold (p=≦0.05) and 2.7±0.74-fold (p=≦0.05) elevation of phosphorylated AMPK and ACC, respectively, at a concentration of 0.4 mmol/l. […] Representative immunoblots of those quantified for FIGS. 3a, c and f are given in FIGS. 3b, d and e, respectively. […]

[5] = system: ACC; test: Western blot for phosphorylated ACC in L6 myotube lysates; format: cell-based; conditions: L6 myotubes, 60 minutes; rHDL 700 μg/ml apoA-I; phenformin 0.4 mmol/l; FIG. 3c,d
Protocol: as §1
To dissect the effect of discoidal rHDL on a non-insulin dependent signaling pathway, we conducted western blotting using lysates from L6 myotubes incubated with rHDL. […] Phenformin was used as a positive control, inducing a 1.98±0.33-fold (p=≦0.05) and 2.7±0.74-fold (p=≦0.05) elevation of phosphorylated AMPK and ACC, respectively, at a concentration of 0.4 mmol/l. […] Representative immunoblots of those quantified for FIGS. 3a, c and f are given in FIGS. 3b, d and e, respectively.

[6] = system: insulin resistant C57Bl/6 mice; test: Glucose tolerance test in high-fat diet fed (HFD) mice; format: in vivo, mouse; conditions: glucose load 3 hours later
Protocol: Male C57BL/6 mice (Taconic) were used at 9-12 weeks of age. Animals were on a 12 hour light cycle with non-restricted food and water. The HFD animals were fed an HFD (D12492, 60% fat content; Research Diets) for 2 weeks. All animal procedures were approved by the Malmo/Lund Committee for Animal Experiment Ethics, Lund, Sweden. HFD mice fasted overnight (12 hours) were injected intra peritoneal (i.p.) with apoA-I peptides as listed above ([…] in PBS pH 7.4 for the 54-mer fragment and 6-7 mg/kg for other fragments in PBS, pH 7.4; control animals received NaCl) and this was followed by collection of serum samples at the indicated times. Glucose (50 mg/mouse) was injected i.p. 3 hours after treatments, followed by collection of serum samples at the indicated times. Blood glucose levels were measured (OnetouchUltra2; Lifescan), and insulin levels were assayed in serum using ELISA (Mercodia).

[7] = molecular target: the molecule itself; test: blue native PAGE, coomassie stained; self-association (homo-oligomer) in solution and after 1 hour with L6 myotubes
From the text: It is known that the 190-234 polypeptide fragment can form discoidal particles by solubilisation of lipid in solution (Vedhachalan et al. (2010) J Biol Chem 285:31965-31973), which can be visualised as oligomers on native PAGE. […] Lipid-free apoA-I and rHDL were included on the gel as a full length protein monomer and dimer reference.

[8] = 18-mer peptides, single injection 7 mg/kg, FIG. 12
[9] = 23- or 27-mer peptides, single injection 6-7 mg/kg, FIG. 11

apoA-I: recombinant full-length human apolipoprotein A-I, amino acids 1-243, lipid-free
alpha-helical secondary structure [1]: about 44% | increased glucose uptake [2]: 1.3 fold | helical content from molar ellipticity at 222 nm [3]: 43%

[H]/N=C(/N)N/C(=N/[H])NCCc1ccccc1 [Phenformin, phenformin, reference compound]
levels of phosphorylated AMPK [4]: 1.98±0.33 fold | levels of phosphorylated ACC [5]: 2.7±0.74 fold

SEQ ID NO: 4: fragment consisting of amino acids 226-243 of human ApoA-I (KVSFLSALEEYTKKLNTQ; listed as Homo Sapiens)
glucose tolerance capacity / capacity to clear blood glucose (in words) [6, 8]: showed particular increased capacity to clear blood glucose

SEQ ID NO: 8: fragment consisting of amino acids 217-243 of human ApoA-I (GLLPVLESFKVSFLSALEEYTKKLNTQ; listed as Homo Sapiens)
glucose tolerance capacity / capacity to clear blood glucose (in words) [6, 9]: showed particular increased capacity to clear blood glucose

SEQ ID NO: 2: fragment consisting of amino acids 190-207 of human ApoA-I (AEYHAKATEHLSTLSEKA; listed as Homo Sapiens)
glucose tolerance capacity / capacity to clear blood glucose (in words) [6, 8]: showed particular increased capacity to clear blood glucose

SEQ ID NO: 518: fragment consisting of amino acids 204-226 of human ApoA-I (SEKAKPALEDLRQGLLPVLESFK; listed as Homo Sapiens)
glucose tolerance capacity / capacity to clear blood glucose (in words) [6, 9]: showed particular increased capacity to clear blood glucose

B1: 190-243 polypeptide fragment of human apoA-I (SEQ ID NO: 1) (peptide, not shown: small tags and cut ends)
chain: AEYHAKATEHLSTLSEKAKPALEDLRQGLLPVLESFKVSFLSALEEYTKKLNTQ
modifications: also: N-terminal hexa-His tag (letters not given here)
notes: Recombinant, expressed in E. coli
binding result [7]: binds
